{
  "source": "patent US20110201688A1",
  "about": "“N,N'-DI-P-BROMOPHENYL GUANIDINE TREATMENT FOR STROKE AT DELAYED TIMEPOINTS” (UNIVERSITY OF SOUTH FLORIDA, priority 2008, published 2011)",
  "key": {"cortical neurons [1]": {"biological_target": "cortical neurons", "experiment": "Inhibition of [Ca2+]i increases evoked by chemical ischemia (sodium azide/glucose deprivation) in cortical neurons, Fura-2", "assay_type": "cell-based, rat", "details": "for More effective than DTG in depressing Ca2+ dysregulation: ischemia-induced [Ca2+]i, relative to DTG set to 1", "description": "Concentration-response relationship for p-Br-DPG inhibition of [Ca^2+]i increases evoked by chemical ischemia (4 mM azide, 0 glucose). […] Dashed line is fit to the data in FIG. 7, shoing p-Br-DPhG inhibition of acidosis-induced Ca^2+ elevations and is included for comparison.\n(§1) The effects of sigma receptors on ischemia-induced changes in intracellular calcium concentrations were studied in cultured cortical neurons from embryonic (E18) rats. Dams were euthanatized by decapitation, uterus removed, and embryos dissected out and placed in isotonic buffer containing 137 mM NaCl, 5 mM KCl, 0.2 mM NaH2PO4, 0.2 mM KH2PO4, 5.5 mM glucose, 6 mM sucrose (pH 7.4 with NaOH). Cortex were excised and minced, and tissue digested in isotonic buffer containing 0.25% trypsin/EDTA for 10 min at 37° C. and added to 3× volume of high glucose culture media (Dulbecco's Modified Eagle Media; Invitrogen, Inc., Carlsbad, Calif.), 10% (v/v) fetal calf serum, 100 U/ml penicillin and 0.1 mg/ml streptomycin. Cells were counted on a hemocytometer, plated (0.5×10^6 cells) on 18 mm coverslips coated with poly-1-lysine, and incubated at 37° C. under a 95% air, 5% CO2 atmosphere. After 24 hr the media was replaced with Neurobasal (Invitrogen, Inc., Carlsbad, Calif.) medium supplemented with B27 (Invitrogen, Inc., Carlsbad, Calif.) and 0.5 mM 1-glutamine to limit astrocyte proliferation in the cultures. Cells were used for studies after 14-21 days in culture.\nThe in vitro NaN3 chemical ischemia disrupts cell metabolism, which ultimately results in plasma membrane dysfunction and intracellular Ca^2+ dysregulation. Fura-2 dye was used to measure changes in intracellular Ca^2+ in the cells. Ischemia was induced in the absence or presence of the drugs to test directly the cell response to sigma receptor activation under ischemic conditions. […] The level of resulting [Ca^2+]i inhibition was compared to DTG, which was set to a relative [Ca^2+]i, level of 1 as indicated by the dashed line. […]"}, "Sprague-Dawley rats": {"test_system": "Sprague-Dawley rats", "experiment": "Permanent middle cerebral artery occlusion (MCAO), infarct volume by Fluoro-Jade staining", "assay_type": "in vivo, rat", "details": "sacrificed at 96 h", "description": "FIG. 9 is a graph showing the data for rats after surgery for permanent middle cerebral arterial occlusion. Rats were treated as indicated at 24, 48, and 72 h and sacrificed at 96 hours. Brain sections were stained with Fluoro-Jade to determine infarct volumes.\n11 adult male Sprague-Dawley rats (Harlan, Indianapolis, Ind.) weighing 300 to 350 g were housed in a climate controlled room with water and laboratory chow available ad libidum. Sprague-Dawley rats (300-350 g) were randomly assigned to 1 of 3 groups: MCAO (n=4); MCAO and DTG (n=3); or MCAO and p-Br-DPG (n=4). MCAO surgery was performed as previously reported by Vendrame et al. (Vendrame, et al., Infusion of human umbilical cord blood cells in a rat model of stroke dose-dependently rescues behavioral deficits and reduces infarct volume. Stroke. 2004 October; 35(10):2390-5. Epub 2004 Aug. 19) and originally described by Longa et al. (Longa, et al., Reversible middle cerebral artery occlusion without craniectomy in rats. Stroke. 1989 January; 20(1):84-9). […]\nRats were treated as indicated at 24, 48, and 72 hours after MCAO with vehicle (MCAO), 7.5 mg/kg N,N′-di-p-bromophenyl guanidine (p-Br-DPG) or 7.5 mg/kg 1,3 di-o-tolylguanidine (DTG). […] Stroke-induced damage was quantified using the Fluoro-Jade fluorescence to determine infarct volumes."}, "cortical neurons [2]": {"test_system": "cortical neurons", "experiment": "Inhibition of [Ca2+]i increases evoked by acidosis (pH 6.0) in cortical neurons", "assay_type": "cell-based, rat", "details": "acidosis pH 6.0, cortical neurons; for Kd: n>50, read-out: Kd (Langmuir-Hill fit) for inhibition of [Ca2+]i increases evoked by acidosis", "description": "Concentration-response relationship for p-Br-DPG and DTG inhibition of [Ca^2+]i increases evoked by acidosis (pH 6.0).\nas §1\n(Ringel F, et al. Lactacidosis-induced glial cell swelling depends on extracellular Ca^2+. Neurosci Lett. 2006 May 8; 398(3):306-9. Epub 2006 Feb. 15). p-Br-DPG was characterized against DTG to determine the ability to inhibit [Ca^2+]i dysregulation in cortical neurons. Cells were administered the indicated amounts of either p-BrDPhG or DTG, followed by cellular [Ca^2+]i dysregulation stimulation by acidosis (pH 6.0). […] A dashed line is superimposed, showing the acidosis results from FIG. 7 for comparison."}, "Microglia": {"test_system": "Microglia", "experiment": "Microglial migration to ATP in Boyden chamber", "assay_type": "cell-based", "details": "4 hrs at 37° C.", "description": "FIG. 10 is a graph showing microglial migration for 4 hrs at 37° C. Control media or 100 μM ATP were used in the absence and presence of DTG or p-Br-DPG (labeled BDTG). Asterisks indicate a significant difference between ATP (p<0.001, n=5) and ATP+BDTG 20 μM (p<0.01, n=5) from DMEM. Significance was determined by one-way ANOVA followed by post-hoc Bonferroni tests.\nMicroglial migration was assayed using a Boyden chamber fitted with a polycarbonate membrane containing 8 μm pores. Microglia (500,000 cells) were placed in the upper chamber and control media or 100 μM ATP were added in the absence and presence of DTG, or various indicated concentrations of p-Br-DPG to the bottom chamber. Microglia were allowed to migrate for 4 hrs at 37° C., and were subsequently stained with DAPI and counted."}, "MCAO rats": {"test_system": "MCAO rats", "details": "cited from earlier work"}, "[3]": {"details": "higher p-Br-DPG concentrations or DTG with 100 μM ATP"}},
  "data": [
    {"smiles": "N=C(Nc1ccc(Br)cc1)Nc1ccc(Br)cc1", "note": "[p-Br-DPG, N,N′-di-p-bromophenyl guanidine]", "values": [
      {"measurement": "Kd", "setting": "cortical neurons [1]; 4 mM azide, 0 glucose, cortical neurons, n>50, read-out: Kd (Langmuir-Hill fit) for inhibition of [Ca2+]i increases evoked by chemical ischemia", "value": 2.6, "unit": "µM"},
      {"measurement": "More effective than DTG in depressing Ca2+ dysregulation", "setting": "cortical neurons [1]", "value": "~25", "unit": "%"},
      {"measurement": "Infarct volume relative to the MCAO group", "setting": "Sprague-Dawley rats; 7.5 mg/kg at 24, 48 and 72 h after MCAO, p<0.001", "value": "significantly reduced infarct volume"},
      {"measurement": "Efficacy on infarct volume compared with DTG treatment", "setting": "Sprague-Dawley rats; 7.5 mg/kg each at 24, 48 and 72 h after MCAO", "value": "slightly more efficacious than DTG treatment"},
      {"measurement": "Effect against [Ca2+]i dysregulation compared with DTG", "setting": "cortical neurons [2]", "value": "significantly higher effect against [Ca^2+]i than DTG"},
      {"measurement": "Kd", "setting": "cortical neurons [2]", "value": 13.5, "unit": "µM"},
      {"measurement": "Microglia migration", "setting": "Microglia; 20 μM with 100 μM ATP, compared to DMEM", "value": "significantly increased microglia migration"},
      {"measurement": "Microglia migration", "setting": "Microglia; [3]", "value": "inhibited the migration"}
    ]},
    {"smiles": "Cc1ccccc1NC(=N)Nc1ccccc1C", "note": "[DTG, N,N′-di-o-tolyl guanidine, reference compound]", "values": [
      {"measurement": "Kd", "setting": "cortical neurons [2]", "value": 109, "unit": "µM"},
      {"measurement": "Reduction of infarct size", "setting": "MCAO rats; MCAO rats (Ajmo 2006)", "value": "more than 80%"},
      {"measurement": "Reduction of stroke damage", "setting": "MCAO rats; administered 24 hours after experimental stroke", "value": 85, "unit": "%"},
      {"measurement": "Microglia migration", "setting": "Microglia; [3]", "value": "inhibited the migration"}
    ]},
    {"smiles": "NC(=Nc1ccccc1)Nc1ccccc1", "note": "[DPhG]", "values": [
      {"measurement": "More effective than DTG in depressing Ca2+ dysregulation", "setting": "cortical neurons [1]", "value": "~25", "unit": "%"}
    ]}
  ]
}
